Test results reported in patent publication US12516038B2, “Inhibitors of antigen presentation by HLA-DR” (Janssen Pharmaceutica NV, priority 2020, dated 2026).

Tests used:
HLA-DRB1*0401 = HLA-DRB1*0401 (Homo sapiens (Human), UniProt P01903+P01911, A100K/A169T/DEL228-266/F76Y/I96L/K127E/L162R/M171V/N62H/P40V/Q125Y/R42H/S133A/S149N/S66Y/V115G/V209L/W38E); test: HLA-DR4 HTRF assay; format: binding; conditions: inhibition of loading of Alexa Fluor 647-labeled Cit-CII peptide onto HLA-DR4 (CLIP cleaved)
Summary of the method: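 HLA-DRB1*04:01 construct (α/β fused to human Fc, CLIP pre-cleaved by HRV3C overnight at 4° C) at 3 nM was preincubated 45 min with compound and 1 nM anti-Fc-Tb donor, then 40 nM Alexa647-Cit-CII1236-1249 peptide added. After 90 min at 37° C, the 665/620 nm HTRF ratio gave % inhibition; IC50 by nonlinear regression.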

[1] = tested on: HLA-DR4 restricted mouse T cell hybridoma line (DR4.CII.36.8) with HLA-DRB1*04:01-expressing Boleth cells; test: HLA-DR4-restricted peptide-specific T cell-based assay (hybridoma assay); conditions: 6 h, inhibition of IL-2 production, CII259-273 peptide presented by Boleth cells
Summary of the method: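 Boleth cells (HLA-DRB1*04:01 B cell line) pre-incubated with compound 1 h at 37° C. in DMEM/1% FCS, then DR4.CII.36.8 mouse T cell hybridoma (CII259-273-specific) added for 6 h with CII259-273 peptide. Supernatant mouse IL-2 by AlphaLISA; IC50 by 4-PL fit of 8-point duplicate titrations.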

[2] = tested on: human peripheral blood CD4+ helper T cells; test: Pan-CD4+ T cell activation (off-target assay); format: cell-based; conditions: anti-CD3/anti-CD28 stimulation, IL-2 production by ELISA
Summary of the method: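 Human peripheral blood CD4+ T cells, with no APCs present, were stimulated with plate-bound anti-CD3 (1 μg/mL coating) plus soluble anti-CD28 (1 μg/mL) in the presence of compound or vehicle for 24 h. IL-2 in the supernatant was quantified by ELISA.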

SMILES | IC50 (HLA-DRB1*0401) [nM] | IC50 ([1]; Mus musculus, T-cell) [nM] | IC50 ([2]; Homo sapiens, T-cell, 24 h) [nM] | IC50 [1] [nM] | IC50 ([2]; 24 hrs) [nM]
CC[C@H]1COc2cc(O[C@H](c3ccncc3)c3ccc(C(N)=O)cc3)ccc2C1=O (single isomer, unassigned) [Example 45b, 4-((*S)—(((*S)-3-ethyl-4-oxochroman-7-yl)oxy)(pyridin-4-yl)methyl)benzamide] | 1400 | 10000 | > 15000 |  | 
NC(=O)c1ccc([C@H](Oc2ccc3c(c2)OCCC3=O)c2ccncc2)cc1 (single isomer, unassigned) [Example 11b, (*S)-4-(((4-oxochroman-7-yl)oxy)(pyridin-4-yl)methyl)benzamide] | 950 | 4700 | > 15000 |  | 
N#Cc1ccc([C@@H](Oc2ccc3c(c2)OCCC3=O)c2ccncc2)cc1 (single isomer, unassigned) [Example 10a, (*R)-4-(((4-oxochroman-7-yl)oxy)(pyridin-4-yl)methyl)benzonitrile] | 950 | 4900 | > 15000 |  | 
NC(=O)c1ccc([C@@H](Oc2cc3c(cc2-c2ccccc2)C(=O)CCO3)c2ccncc2)cc1 (single isomer, unassigned) [Example 54a, (*R)-4-(((4-oxo-6-phenylchroman-7-yl)oxy)(pyridin-4-yl)methyl)benzamide] | 630 | 78 | 520 |  | 
CC1(C)COc2cc(O[C@@H](c3ccncc3)c3ccc(C(N)=O)cc3)ccc2C1=O (single isomer, unassigned) [Example 56a, (*R)-4-(((3,3-dimethyl-4-oxochroman-7-yl)oxy)(pyridin-4-yl)methyl)benzamide] | 1400 | 1700 | 4600 |  | 
COc1ccccc1[C@H](Oc1ccc2c(c1)OCCC2=O)c1ccncc1 (single isomer, unassigned) [Example 14a, (*R)-7-((2-Methoxyphenyl)(pyridin-4-yl)methoxy)chroman-4-one] | 1900 | 8700 | > 15000 |  | 
O=C1CCOc2cc(O[C@@H](c3ccncc3)C3CCCCC3)ccc21 (single isomer, unassigned) [Example 38a, (*R)-7-(cyclohexyl(pyridin-4-yl)methoxy)chroman-4-one] | 4600 | 4000 | 4700 |  | 
Cc1cc2c(c(C)c1O[C@@H](c1ccncc1)c1ccc(C#N)cc1)OCCC2=O (single isomer, unassigned) [Example 88a, (*R)-4-(((6,8-dimethyl-4-oxochroman-7-yl)oxy)(pyridin-4-yl)methyl)benzonitrile] | 400 | 2200 | > 15000 |  | 
NC(=O)c1ccc([C@@H](Oc2ccc3c(c2)OCCC3=O)c2cccnc2)cc1 (single isomer, unassigned) [Example 31b, (*S)-4-(((4-oxochroman-7-yl)oxy)(pyridin-3-yl)methyl)benzamide] | 640 |  |  | 3500 | > 15000
CCc1cc2c(cc1O[C@H](c1ccncc1)c1ccc(C(N)=O)cc1)OCCC2=O (single isomer, unassigned) [Example 74b, (*S)-4-(((6-ethyl-4-oxochroman-7-yl)oxy)(pyridin-4-yl)methyl)benzamide] | 920 | 1900 | 15000 |  | 
O=C1CCOc2cc(OC(c3ccncc3)c3ccc(F)cc3)ccc21 (racemic) [Example 3, (R,S)-7-((4-Fluorophenyl)(pyridin-4-yl)methoxy)chroman-4-one] | 990 | 3700 | > 15000 |  | 
Cc1c(O[C@@H](c2ccncc2)c2ccc(C(N)=O)cc2OCc2ccccc2)ccc2c1OCCC2=O (single isomer, unassigned) [Example 86b, (*S)-3-(benzyloxy)-4-(((8-methyl-4-oxochroman-7-yl)oxy)(pyridin-4-yl)methyl)benzamide] | 1000 | 1700 | 1400 |  | 
O=C1CCOc2cc(O[C@H](c3ccncc3)c3cccc(O)c3)ccc21 (single isomer, unassigned) [Example 5a, (*R)-7-((3-Hydroxyphenyl)(pyridin-4-yl)methoxy)chroman-4-one] | 14000 | 1900 | 2800 |  | 
CC(C)c1cc2c(cc1O[C@H](c1ccncc1)c1ccc(C(N)=O)cc1)OCCC2=O (single isomer, unassigned) [Example 76b, (*S)-4-(((6-isopropyl-4-oxochroman-7-yl)oxy)(pyridin-4-yl)methyl)benzamide] | 1000 | 3100 | 15000 |  | 
CN(C)C(=O)c1ccc([C@H](Oc2ccc3c(c2)OCCC3=O)c2ccncc2)cc1 (single isomer, unassigned) [Example 72b, (*S)—N,N-dimethyl-4-(((4-oxochroman-7-yl)oxy)(pyridin-4-yl)methyl)benzamide] | 690 | 11000 | > 15000 |  | 
COc1ccc([C@@H](Oc2ccc3c(c2)OCCC3=O)c2ccncc2)cc1 (single isomer, unassigned) [Example 12a, (*R)-7-((4-Methoxyphenyl)(pyridin-4-yl)methoxy)chroman-4-one] | 2000 | 2600 | 9900 |  | 
O=C1CCOc2cc(O[C@H](c3ccncc3)c3ccc(F)cc3)ccc21 (single isomer, unassigned) [Example 3b, (*S)-7-((4-Fluorophenyl)(pyridin-4-yl)methoxy)chroman-4-one] | 1300 | 2100 | > 15000 |  | 
O=C1CCOc2cc(O[C@H](c3ccncc3)c3ccccc3F)ccc21 (single isomer, unassigned) [Example 1a, (*R)-7-((2-Fluorophenyl)(pyridin-4-yl)methoxy)chroman-4-one] | 1000 | 3400 | > 15000 |  | 
NC(=O)c1ccc([C@H](Oc2ccc3c(c2)OCCC3=O)c2ccncc2-c2ccccc2)cc1 (single isomer, unassigned) [Example 25b, (*S)-4-(((4-oxochroman-7-yl)oxy)(3-phenylpyridin-4-yl)methyl)benzamide] | 490 | 4500 | 3200 |  | 
CCCc1c(O[C@@H](c2ccncc2)c2ccc(C(N)=O)cc2)ccc2c1OCCC2=O (single isomer, unassigned) [Example 80a, (*R)-4-(((4-Oxo-8-propylchroman-7-yl)oxy)(pyridin-4-yl)methyl)benzamide] | 660 | 32 | 5900 |  | 
NC(=O)c1ccc([C@H](Oc2ccc3c(c2-c2ccccc2)OCCC3=O)c2ccncc2)cc1 (single isomer, unassigned) [Example 53b, (*S)-4-(((4-oxo-8-phenylchroman-7-yl)oxy)(pyridin-4-yl)methyl)benzamide] | 600 | 450 | 3200 |  | 
NC(=O)c1ccc([C@@H](Oc2ccc3c(c2)OCCC3=O)c2ccnc3ccccc23)cc1 (single isomer, unassigned) [Example 22a, (*R)-4-(((4-oxochroman-7-yl)oxy)(quinolin-4-yl)methyl)benzamide] | 1300 | 1900 | 4700 |  | 
Cc1c(O[C@@H](c2ccc(Cl)cc2)c2ccc(C(N)=O)nc2)ccc2c1OCCC2=O (single isomer, unassigned) [Example 64b, (*S)-5-((4-chlorophenyl)((8-methyl-4-oxochroman-7-yl)oxy)methyl)picolinamide] | 1800 | 4800 | > 15000 |  | 
CC[C@@H]1COc2cc(O[C@H](c3ccncc3)c3ccc(C(N)=O)cc3)ccc2C1=O (single isomer, unassigned) [Example 45a, 4-((*S)—(((*R)-3-ethyl-4-oxochroman-7-yl)oxy)(pyridin-4-yl)methyl)benzamide] | 1100 | 3400 | > 15000 |  | 
N#Cc1c(O[C@@H](c2ccncc2)c2ccc(C(N)=O)cc2)ccc2c1OCCC2=O (single isomer, unassigned) [Example 78a, (*R)-4-(((8-cyano-4-oxochroman-7-yl)oxy)(pyridin-4-yl)methyl)benzamide] | 470 | 2300 | 9900 |  | 
Cc1cc([C@@H](Oc2c(F)cc3c(c2C)OCCC3=O)c2ccc(C(N)=O)cc2)cc(C)n1 (single isomer, unassigned) [Example 94b, (*S)-4-((2,6-dimethylpyridin-4-yl)((6-fluoro-8-methyl-4-oxochroman-7-yl)oxy)methyl)benzamide] | 230 | 890 | 9900 |  | 
Cc1c(O[C@H](c2ccc(C(N)=O)cc2)c2ccccc2F)ccc2c1OCCC2=O (single isomer, unassigned) [Example 68a, (*R)-4-((2-Fluorophenyl)((8-methyl-4-oxochroman-7-yl)oxy)methyl)benzamide] | 1500 | 5600 | 4700 |  | 
